Source: ChEMBL document CHEMBL5257038, “Active Natural Product Scaffolds against Trypanosomatid Parasites: A Review” (J Nat Prod, 2018)
Positions of bridges follow the written chain, without caps; N, C: chain ends. Non-standard residues stand in square brackets, D forms with d. Residues, ends and D or L forms follow the SMILES beside them. ξ: configuration not given here. ξK = NCCCCC(N)C(=O)O

Legend:
[1] = test system: Trypanosoma brucei rhodesiense; assay: Antitrypanosomal activity against bloodstream form of Trypanosoma brucei rhodesiense assessed as parasite growth inhibition; format: functional, organism-based
Leishmania donovani [2] = assay: Antileishmanial activity against amastigote form of Leishmania donovani assessed as parasite growth inhibition; format: functional, organism-based
[3] = Selectivity index, ratio of IC50 for cytotoxicity against rat L6 cells to IC50 for antileishmanial activity against amastigote form of Leishmania donovani; format: toxicity, cell-based; conditions: read-out: Ratio IC50
[4] = Selectivity index, ratio of IC50 for cytotoxicity against rat L6 cells to IC50 for antitrypanosomal activity against bloodstream form of Trypanosoma brucei rhodesiense; format: toxicity, cell-based; conditions: read-out: Ratio IC50
Leishmania donovani [5] = assay: Antileishmanial activity against Leishmania donovani promastigotes infected in golden hamster assessed as reduction in parasite load in spleen at 3.5 mg/kg administered twice per week for 4 weeks relative to control; format: functional; design: scale not given: the % may be the effect or the level left
[6] = test system: Trypanosoma brucei brucei; assay: Antitrypanosomal activity against bloodstream form of Trypanosoma brucei brucei assessed as reduction in parasite growth; format: functional, organism-based
Trypanosoma cruzi [7] = assay: Antitrypanosomal activity against intracellular Trypanosoma cruzi amastigote assessed as reduction in parasite growth; format: functional, organism-based
Leishmania infantum [8] = assay: Antileishmanial activity against amastigote stage of Leishmania infantum; format: functional, organism-based
THP-1 = assay: Cytotoxicity against human THP-1 cells; format: functional, cell-based
[9] = test system: Trypanosoma brucei brucei; assay: Antitrypanosomal activity against Trypanosoma brucei brucei; format: functional, organism-based
[10] = Selectivity index, ratio of IC50 for cytotoxicity against human T98G cells to IC50 for antitrypanosomal activity against Trypanosoma brucei brucei; format: toxicity, cell-based; conditions: read-out: Ratio IC50
Trypanosoma cruzi [11] = assay: Antitrypanosomal activity against epimastigote form of Trypanosoma cruzi assessed as reduction in parasite growth; format: functional, organism-based
Trypanosoma cruzi [12] = assay: Antitrypanosomal activity against trypomastigote form of Trypanosoma cruzi assessed as reduction in parasite growth; format: functional, organism-based
Leishmania major = assay: Antileishmanial activity against Leishmania major promastigotes assessed as parasite growth inhibition; format: functional, organism-based
Leishmania donovani [13] = assay: Antileishmanial activity against Leishmania donovani promastigotes assessed as parasite growth inhibition; format: functional, organism-based
Trypanosoma brucei = assay: Antitrypanosomal activity against bloodstream form of Trypanosoma brucei assessed as parasite growth inhibition; format: functional, organism-based
[14] = Selectivity index, ratio of IC50 for cytotoxicity against mouse peritoneal macrophage cells to IC50 for antileishmanial activity against Leishmania donovani promastigotes; format: toxicity, cell-based; conditions: read-out: Ratio IC50
[15] = Selectivity index, ratio of IC50 for cytotoxicity against mouse peritoneal macrophage cells to IC50 for antitrypanosomal activity against bloodstream form of Trypanosoma brucei; format: toxicity, cell-based; conditions: read-out: Ratio IC50
Trypanosoma cruzi [16] = assay: Antitrypanosomal activity against Trypanosoma cruzi amastigote; format: functional, organism-based
[17] = Selectivity index, ratio of IC50 for cytotoxicity against African green monkey Vero cells to IC50 for antitrypanosomal activity against Trypanosoma cruzi amastigote; format: toxicity, cell-based; conditions: read-out: Ratio IC50
[18] = Selectivity index, ratio of IC50 for cytotoxicity against rat L6 cells to IC50 for antitrypanosomal activity against intracellular Trypanosoma cruzi amastigote; format: toxicity, cell-based; conditions: read-out: Ratio IC50
[19] = Selectivity index, ratio of CC50 for cytotoxicity against rat L6 cells to IC50 for antitrypanosomal activity against bloodstream form of Trypanosoma brucei rhodesiense; format: toxicity, cell-based; conditions: read-out: Ratio CC50/IC50
Leishmania infantum [20] = assay: Antileishmanial activity against promastigote stage of Leishmania infantum; format: functional, organism-based

Compound: CC/C=C(C)/C=C/CCC[C@]1(OC)C[C@H](C)[C@H](CC(=O)OC)OO1 [MANADOPEROXIDE B]
- EC50 [1]: 8.8 nM

Compound: O=c1cc(-c2ccc(O)c(O)c2)oc2cc(O)cc(O)c12 [LUTEOLIN]
- EC50 [1]: 14100 nM
- EC50 (Leishmania donovani [2]): 2800 nM
- selectivity ratio [3]: 12
- selectivity ratio [4]: 3
- Activity (Leishmania donovani [5]): 80%

Compound: CO/N=c1\[n-]cnc2c1n(C/C=C(\C)CCC=C(C)C)c[n+]2C
- EC50 [6]: 500 nM
- EC50 (Trypanosoma cruzi [7]): < 250 nM
- EC50 (Leishmania infantum [8]): 2000 nM

Compound: N=C(N)c1ccc(OCCCCCOc2ccc(C(=N)N)cc2)cc1 [PENTAMIDINE]
- EC50 (THP-1): 15800 nM

Compound: CC1=C\C=C\C[C@H](C)NC(=O)/C=C/C=C/C=C/[C@H](C)[C@@H](O)[C@H](O)[C@H](O)C[C@@H](O)\C=C\C=C\C(C)=C\1
- EC50 [9]: 6100 nM
- selectivity ratio [10]: 11

Compound: CC[C@H](C)[C@@H]1NC(=O)CNC(=O)[C@H](CCCNC(=N)N)NC(=O)[C@H](Cc2ccc(O)cc2)NC(=O)[C@@H]2CSSC[C@H](NC1=O)C(=O)N[C@@H](Cc1ccc(O)cc1)C(=O)N[C@@H](CCCNC(=N)N)C(=O)N[C@@H](CCCNC(=N)N)C(=O)N[C@H](C(=O)N[C@@H](CCCNC(=N)N)C(N)=O)CSSC[C@H](NC(=O)[C@H](Cc1c[nH]c3ccccc13)NC(=O)C(N)CCCCN)C(=O)N[C@@H](Cc1ccccc1)C(=O)N[C@@H](CCCNC(=N)N)C(=O)N[C@@H](C(C)C)C(=O)N2 (stereo partly drawn) (H-[ξK]WCFRVCYRGICYRRCR-NH2; disulfide 3-16, 7-12)
- EC50 (Trypanosoma cruzi [11]): 47900 nM
- EC50 (Trypanosoma cruzi [12]): 9300 nM

Compound: O=c1cc(-c2ccccc2)oc2c(O)c(O)ccc12 [7,8-DIHYDROXYFLAVONE]
- EC50 [1]: 270 nM
- selectivity ratio [4]: 116

Compound: O=c1c(O[C@@H]2O[C@H](CO)[C@@H](O)[C@H](O)[C@H]2O)c(-c2cc(O)c(O)c(O)c2)oc2cc(O)cc(O)c12
- EC50 [6]: 13100 nM

Compound: CC(C)[C@@H]1NC(=O)[C@H](C)OC(=O)[C@@H](C(C)C)NC(=O)[C@@H](C(C)C)OC(=O)[C@H](C(C)C)NC(=O)[C@H](C)OC(=O)[C@@H](C(C)C)NC(=O)[C@@H](C(C)C)OC(=O)[C@H](C(C)C)NC(=O)[C@H](C)OC(=O)[C@@H](C(C)C)NC(=O)[C@@H](C(C)C)OC1=O [VALINOMYCIN]
- EC50 [6]: 3.2 nM
- EC50 (Leishmania major): < 110 nM

Compound: C=C1C(=O)O[C@H]2C[C@@](C)(O)C3=CC[C@](C)(O)[C@@H]3C[C@H]12 [GUAIANOLIDE]
- EC50 (Trypanosoma cruzi [11]): 18100 nM
- EC50 (Trypanosoma cruzi [7]): 67000 nM
- EC50 (Trypanosoma cruzi [12]): 5700 nM

Compound: CO[C@@]1(CCCC2(O)C=C(C)C(C)O2)C[C@H](C)[C@H](CC(=O)O)OO1 (stereo partly drawn)
- EC50 [1]: 170 nM
- EC50 [6]: 49 nM

Compound: Cn1c2c3cc(Br)ccc3nc-2cc2cc(Br)ccc21
- EC50 (Leishmania donovani [13]): 500 nM
- EC50 (Trypanosoma brucei): 2.9 nM
- selectivity ratio [14]: 18
- selectivity ratio [15]: 2080

Compound: COc1cc2c(c3oc4cccc(O)c4c(=O)c13)[C@@H]1C=CO[C@@H]1O2 [STERIGMATOCYSTIN]
- EC50 (Trypanosoma cruzi [16]): 130 nM
- selectivity ratio [17]: 0.46

Compound: CC/C=C(C)\C=C\CCC[C@]1(OC)C[C@H](C)[C@H](CC(=O)OC)OO1
- EC50 [1]: 32 nM
- selectivity ratio [4]: > 350

Compound: O=c1c(O)c(-c2ccccc2)oc2ccccc12 [FLAVONOL]
- EC50 [1]: 2200 nM
- EC50 (Leishmania donovani [2]): 3000 nM
- EC50 (Trypanosoma cruzi [7]): 33000 nM
- selectivity ratio [3]: 21
- selectivity ratio [4]: 29
- selectivity ratio [18]: 2

Compound: C/C=C(\C)C(=O)O[C@@H]1CC(C(=O)O)=C2C(=O)C=C(C)[C@@H]2[C@H]2OC(=O)[C@H](C)[C@@H]21
- EC50 [1]: 20700 nM

Compound: CC1=C\C=C\C[C@H](C)NC(=O)/C=C/C=C/C=C/[C@H](C)[C@@H](O)[C@H](O)[C@H](O)C[C@@H](O)/C=C\C=C\C(C)=C\1
- EC50 [9]: 800 nM
- selectivity ratio [10]: 83

Compound: C=C1CC[C@H]2C(C)(C)CCC[C@]2(C)[C@H]1CC/C(C)=C/Cn1c[n+](C)c2ncnc(N)c21
- EC50 [6]: 1800 nM
- EC50 (Trypanosoma cruzi [7]): 9000 nM
- EC50 (Leishmania infantum [8]): 3000 nM

Compound: C[n+]1c2ccccc2cc2[n-]c3ccccc3c21 [CRYPTOLEPINE]
- EC50 (Leishmania donovani [13]): 1600 nM
- EC50 (Trypanosoma brucei): 300 nM
- selectivity ratio [14]: 0.7
- selectivity ratio [15]: 29.3

Compound: O=C(Cn1ccnc1[N+](=O)[O-])NCc1ccccc1 [BENZNIDAZOLE]
- EC50 (Trypanosoma cruzi [11]): 9300 nM

Compound: C/C=C(\C)C(=O)O[C@@H]1CC([C@@H](O)C2=CC3OC(=O)C4=C3[C@H]2[C@H]2OC(=O)[C@H](C)[C@@H]2[C@H](OC(=O)/C(C)=C/C)C4)=C2C(=O)C=C(C)[C@@H]2[C@H]2OC(=O)[C@H](C)[C@@H]21 (stereo partly drawn)
- EC50 [1]: 4500 nM
- EC50 (Leishmania donovani [2]): 10200 nM
- EC50 (Trypanosoma cruzi [7]): 30300 nM

Compound: CC1CS(=O)(=O)CCN1/N=C/c1ccc([N+](=O)[O-])o1 (stereo not drawn) [NIFURTIMOX]
- EC50 (Trypanosoma cruzi [11]): 1500 nM
- EC50 (Leishmania donovani [13]): 24 nM
- EC50 (Leishmania donovani [2]): 4 nM

Compound: Nc1nc([C@H]2[C@H](CNC(=O)c3cc(Br)c[nH]3)[C@@H](CNC(=O)c3cc(Br)c[nH]3)[C@@H]2c2c[nH]c(N)n2)c[nH]1 [SCEPTRIN]
- EC50 [1]: 15700 nM
- EC50 (Leishmania donovani [2]): 83000 nM
- EC50 (Trypanosoma cruzi [7]): 96000 nM
- selectivity ratio [19]: > 10

Compound: CCCCCCC1CCCC(C2CCC([C@H]3CC[C@H]([C@H](O)CCCCCCCCCCCCC4=C[C@H](C)OC4=O)O3)O2)O1 (stereo partly drawn) [CHAMUVARININ]
- EC50 [6]: 1300 nM

Compound: C=C(C)C(=O)O[C@H]1CC2=C[C@@H](C/C(C)=C/[C@H]3OC(=O)C(=C)[C@H]13)OC2=O
- EC50 [1]: 70 nM
- EC50 (Leishmania major): < 280 nM

Compound: COc1cccc2oc3c(Cl)c(O)c([C@H]4CCC[C@@H](C)O4)c(O)c3c(=O)c12 [CHAETOXANTHONE C]
- EC50 [1]: 109000 nM
- EC50 (Leishmania donovani [13]): 7900 nM
- EC50 (Trypanosoma cruzi [7]): 3800 nM

Compound: CC/C=C(C)/C=C/CCC[C@]1(OC)C[C@H](C)[C@H](CC(=O)O)OO1
- EC50 [1]: 5700 nM
- selectivity ratio [4]: 3.8

Compound: C[C@@H]1[C@H](O)[C@@H](C)/C=C/C=C/C=C/C=C/C=C/C=C/C=C/[C@H](O[C@@H]2O[C@H](C)[C@@H](O)[C@H](N)[C@@H]2O)C[C@@H]2O[C@](O)(C[C@@H](O)C[C@@H](O)[C@H](O)CC[C@@H](O)C[C@@H](O)CC(=O)O[C@H]1C)C[C@H](O)[C@H]2C(=O)O [AMPHOTERICIN B]
- EC50 (Leishmania infantum [20]): 40 nM
- EC50 (THP-1): 2000 nM

Compound: COc1ccc2c(=O)cc(-c3ccccc3)oc2c1OC
- EC50 [1]: 21600 nM
- selectivity ratio [4]: 5

Compound: Cc1cc(O[C@@H]2O[C@@H](C)[C@H](O)[C@@H](O)[C@H]2O)c2c(c1)cc(O[C@@H]1O[C@@H](C)[C@H](O)[C@@H](O)C1O)c1c(=O)c3c(O)cccc3oc12 (stereo partly drawn)
- EC50 [6]: 15500 nM

Compound: NC[C@@H]1O[C@H](O[C@H]2[C@@H](O)[C@H](O[C@@H]3[C@@H](O)[C@H](N)C[C@H](N)[C@H]3O[C@H]3O[C@H](CO)[C@@H](O)[C@H](O)[C@H]3N)O[C@@H]2CO)[C@H](N)[C@@H](O)[C@@H]1O [PAROMOMYCIN]
- EC50 [1]: 22700 nM
- EC50 (Leishmania donovani [13]): 5 nM
- EC50 (Leishmania donovani [2]): 7 nM

Compound: C[C@@H]1O[C@@H](Oc2cc(O)c3c(=O)c(O)c(-c4ccc(O)c(O)c4)oc3c2)[C@H](O)[C@H](O)[C@H]1O
- EC50 [6]: 20100 nM

Compound: O=c1c(O)c(-c2cc(O)c(O)c(OS(=O)(=O)O)c2)oc2cc(O)cc(O)c12
- EC50 [6]: 21400 nM

Compound: COc1cc(-c2oc3cc(O)cc(O)c3c(=O)c2O)ccc1O [ISORHAMNETIN]
- selectivity ratio [3]: 10.7
- selectivity ratio [4]: 4.6

Compound: COc1ccc(-c2oc3cc(OC)c(OC)c(O)c3c(=O)c2OC)cc1OC [ARTEMETIN]
- EC50 [1]: 12100 nM
- selectivity ratio [4]: 9.8

Compound: CCCCCCCCCCCCCCCCOP(=O)([O-])OCC[N+](C)(C)C [MILTEFOSINE]
- EC50 (Trypanosoma cruzi [11]): 920 nM
- EC50 (THP-1): 4670 nM
